Measured values published in US10544130B2, “Metallo-beta-lactamase inhibitors” (priority 2015, dated 2020).

What was measured:
[1] = test system: Escherichia coli expressing NDM-1 (CLB30005, CLB30016); assay type: cell-based; settings: with imipenem 1 μg/ml; 95% inhibition of bacterial growth
Summary of the method: (§1)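 Clinical strains were grown overnight at 35 °C on blood agar, adjusted to set OD600 in saline and diluted 1:100 into 1.1× CAMHB. Inhibitor was tested with and without imipenem at 1 μg/ml. After 22–24 h at 35 °C, absorbance was read to give synergistic concentration.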

[2] = test system: Klebsiella pneumoniae expressing VIM-1 (IHMA599644); assay type: cell-based; settings: with imipenem 1 μg/ml; 95% inhibition of bacterial growth
Summary of the method: as §1

[3] = test system: Serratia marcescens expressing IMP-1 (CL5741); assay type: cell-based; settings: with imipenem 1 μg/ml; 95% inhibition of bacterial growth
Summary of the method: as §1

[4] = test system: Pseudomonas aeruginosa PAO1 MB9798 (efflux+, IMP-1); settings: ratio MITC95 PA 9798/MITC95 PA 9799; imipenem at 2 μg/mL
Summary of the method: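 Isogenic PAO1 pair (efflux+ MB9798, efflux− MB9799, both IMP-1) tested by microbroth MIC with fixed imipenem and/or ceftazidime, usually at CLSI breakpoint, plus fixed class A/C inhibitor against AmpC. MBL inhibitor titrated; concentration restoring susceptibility recorded and fold difference between strains taken as efflux extent.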

CN([C@H]1CCNC1)S(=O)(=O)c1ccc(-c2cccc3[nH]c(N)nc23)c(-c2nn[nH]n2)c1S(N)(=O)=O [Example 244, (S)-4-(2-amino-1H-benzo[d]imidazol-7-yl)-N1-methyl-N1-(pyrrolidin-3-yl)-3-(1H-tetrazol-5-yl)benzene-1,2-disulfonamide]
Escherichia coli (NDM-1) MITC95 [1]: 0.7813 µM
Klebsiella pneumoniae (VIM-1) MITC95 [2]: 1.563 µM
Serratia marcescens (IMP-1) MITC95 [3]: 1.563 µM
Efflux ratio [4]: 2.00

NCCN1CC[C@@H](NS(=O)(=O)c2ccc(-c3cccc4[nH]c(N)nc34)c(-c3nn[nH]n3)c2S(N)(=O)=O)C1 [Example 246, (R)-4-(2-amino-1H-benzo[d]imidazol-4-yl)-N1-(1-(2-aminoethyl)pyrrolidin-3-yl)-3-(2H-tetrazol-5-yl)benzene-1,2-disulfonamide]
Escherichia coli (NDM-1) MITC95 [1]: 0.7813 µM
Klebsiella pneumoniae (VIM-1) MITC95 [2]: 1.563 µM
Serratia marcescens (IMP-1) MITC95 [3]: 1.563 µM
Efflux ratio [4]: 2.00

NCc1ncc(-c2cccc(-c3ccc(S(=O)(=O)N[C@@H]4CCNC4)c(S(N)(=O)=O)c3-c3nn[nH]n3)c2)[nH]1 [Example 278, (R)-3′-(2-(aminomethyl)-1H-imidazol-5-yl)-N4-(pyrrolidin-3-yl)-2-(2H-tetrazol-5-yl)-[1,1′-biphenyl]-3,4-disulfonamide]
Escherichia coli (NDM-1) MITC95 [1]: 0.7813 µM
Klebsiella pneumoniae (VIM-1) MITC95 [2]: 0.7813 µM
Serratia marcescens (IMP-1) MITC95 [3]: 0.7813 µM
Efflux ratio [4]: 1.00

NCCn1nc2cccc(-c3ccc(S(=O)(=O)N[C@@H]4CCNC4)c(S(N)(=O)=O)c3-c3nn[nH]n3)c2n1 [Example 279, (R)-4-(2-(2-aminoethyl)-2H-benzo[d][1,2,3]triazol-4-yl)-N1-(pyrrolidin-3-yl)-3-(2H-tetrazol-5-yl)benzene-1,2-disulfonamide]
Escherichia coli (NDM-1) MITC95 [1]: 0.7813 µM
Klebsiella pneumoniae (VIM-1) MITC95 [2]: 0.7813 µM
Serratia marcescens (IMP-1) MITC95 [3]: 0.7813 µM
Efflux ratio [4]: 1.00

Cn1nc2cccc(-c3ccc(S(=O)(=O)N[C@@H]4CCNC4)c(S(N)(=O)=O)c3-c3nn[nH]n3)c2n1 [Example 281, (R)-4-(2-methyl-2H-benzo[d][1,2,3]triazol-4-yl)-N1-(pyrrolidin-3-yl)-3-(2H-tetrazol-5-yl)benzene-1,2-disulfonamide]
Escherichia coli (NDM-1) MITC95 [1]: 1.563 µM
Klebsiella pneumoniae (VIM-1) MITC95 [2]: 3.125 µM
Serratia marcescens (IMP-1) MITC95 [3]: 1.563 µM
Efflux ratio [4]: 2.00

Nc1cc(-c2ccc(S(=O)(=O)N[C@@H]3CCNC3)c(S(N)(=O)=O)c2-c2nn[nH]n2)ccn1 [Example 288, (R)-4-(2-aminopyridin-4-yl)-N1-(pyrrolidin-3-yl)-3-(2H-tetrazol-5-yl)benzene-1,2-disulfonamide]
Escherichia coli (NDM-1) MITC95 [1]: 0.7813 µM
Klebsiella pneumoniae (VIM-1) MITC95 [2]: 1.563 µM
Serratia marcescens (IMP-1) MITC95 [3]: 1.563 µM
Efflux ratio [4]: 2.00

Cc1ccc(-c2ccc(S(=O)(=O)NCCN)c(S(N)(=O)=O)c2-c2nn[nH]n2)c2nc(N)[nH]c12 [Example 329, 4-(2-Amino-7-methyl-1H-benzo[d]imidazol-4-yl)-N1-(2-aminoethyl)-3-(2H-tetrazol-5-yl)benzene-1,2-disulfonamide]
Escherichia coli (NDM-1) MITC95 [1]: 1.563 µM
Klebsiella pneumoniae (VIM-1) MITC95 [2]: 1.563 µM
Serratia marcescens (IMP-1) MITC95 [3]: 1.563 µM
Efflux ratio [4]: 2.00

NCCNS(=O)(=O)c1ccc(-c2cccc3[nH]c([C@H](N)CN)nc23)c(-c2nn[nH]n2)c1S(N)(=O)=O [Example 335, (R)—N1-(2-aminoethyl)-4-(2-(1,2-diaminoethyl)-1H-benzo[d]imidazole-4-yl)-3-(2H-tetrazol-5-yl)benzene-1,2-disulfonamide]
Escherichia coli (NDM-1) MITC95 [1]: 1.563 µM
Klebsiella pneumoniae (VIM-1) MITC95 [2]: 3.125 µM
Serratia marcescens (IMP-1) MITC95 [3]: 3.125 µM
Efflux ratio [4]: 2.00

NCCNS(=O)(=O)c1ccc(-c2cccc3[nH]c([C@@H](N)CN)nc23)c(-c2nn[nH]n2)c1S(N)(=O)=O [Example 336, (S)—N1-(2-aminoethyl)-4-(2-(1,2-diaminoethyl)-1H-benzo[d]imidazol-4-yl)-3-(2H-tetrazol-5-yl)benzene-1,2-disulfonamide]
Escherichia coli (NDM-1) MITC95 [1]: 1.563 µM
Klebsiella pneumoniae (VIM-1) MITC95 [2]: 3.125 µM
Serratia marcescens (IMP-1) MITC95 [3]: 3.125 µM
Efflux ratio [4]: 2.00

NC[C@H](N)CNS(=O)(=O)c1ccc(-c2cccc(-c3c[nH]c(N)n3)c2)c(-c2nn[nH]n2)c1S(N)(=O)=O [Example 434, (S)-3′-(2-amino-1H-imidazol-4-yl)-N^4-(2,3-diaminopropyl)-2-(2H-tetrazol-5-yl)-[1,1′-biphenyl]-3,4-disulfonamide]
Escherichia coli (NDM-1) MITC95 [1]: 0.7813 µM
Klebsiella pneumoniae (VIM-1) MITC95 [2]: 1.563 µM
Serratia marcescens (IMP-1) MITC95 [3]: 1.563 µM

NCC(CN)NS(=O)(=O)c1ccc(-c2cccc(-c3c[nH]c(N)n3)c2)c(-c2nn[nH]n2)c1S(N)(=O)=O [Example 435, 3′-(2-amino-1H-imidazol-4-yl)-N4-(1,3-diaminopropan-2-yl)-2-(2H-tetrazol-5-yl)-[1,1′-biphenyl]-3,4-disulfonamide]
Escherichia coli (NDM-1) MITC95 [1]: 1.563 µM
Klebsiella pneumoniae (VIM-1) MITC95 [2]: 3.125 µM
Serratia marcescens (IMP-1) MITC95 [3]: 3.125 µM

NCC(CN)NS(=O)(=O)c1ccc(-c2cccc(-c3cnc(N)[nH]3)n2)c(-c2nnn[nH]2)c1S(N)(=O)=O [Example 438, 4-(6-(2-Amino-1H-imidazol-5-yl)pyridin-2-yl)-N^1-(1,3-diaminopropan-2-yl)-3-(1H-tetrazol-5-yl)benzene-1,2-disulfonamide]
Escherichia coli (NDM-1) MITC95 [1]: 3.125 µM
Klebsiella pneumoniae (VIM-1) MITC95 [2]: 3.125 µM
Serratia marcescens (IMP-1) MITC95 [3]: 3.125 µM

Nc1ncc(-c2cc(-c3ccc(S(=O)(=O)N[C@@H]4CCNC4)c(S(N)(=O)=O)c3-c3nnn[nH]3)ccn2)[nH]1 [Example 440, (R)-4-(2-(2-Amino-1H-imidazol-5-yl)pyridin-4-yl)-N^1-(pyrrolidin-3-yl)-3-(1H-tetrazol-5-yl)benzene-1,2-disulfonamide]
Escherichia coli (NDM-1) MITC95 [1]: 0.7813 µM
Klebsiella pneumoniae (VIM-1) MITC95 [2]: 1.563 µM
Serratia marcescens (IMP-1) MITC95 [3]: 1.563 µM

C[C@H](N)Cc1nc2c(-c3ccc(S(=O)(=O)N[C@@H]4CCNC4)c(S(N)(=O)=O)c3-c3nn[nH]n3)cccc2[nH]1 [Example 441, 4-(2-((S)-2-Aminopropyl)-1H-benzo[d]imidazol-4-yl)-N1-((R)-pyrrolidin-3-yl)-3-(2H-tetrazol-5-yl)benzene-1,2-disulfonamide]
Escherichia coli (NDM-1) MITC95 [1]: 1.563 µM
Klebsiella pneumoniae (VIM-1) MITC95 [2]: 1.563 µM
Serratia marcescens (IMP-1) MITC95 [3]: 1.563 µM

NCC(F)(F)c1nc2c(-c3ccc(S(=O)(=O)N[C@H]4CCNC4)c(S(N)(=O)=O)c3-c3nn[nH]n3)cccc2[nH]1 [Example 446, (S)-4-(2-(2-amino-1,1-difluoroethyl)-1H-benzo[d]imidazol-4-yl)-N1-(pyrrolidin-3-yl)-3-(2H-tetrazol-5-yl)benzene-1,2-disulfonamide]
Escherichia coli (NDM-1) MITC95 [1]: 1.563 µM
Klebsiella pneumoniae (VIM-1) MITC95 [2]: 3.125 µM
Serratia marcescens (IMP-1) MITC95 [3]: 3.125 µM

NCCNC(=O)c1cc(Cl)cc(-c2ccc(S(=O)(=O)NCCN)c(S(N)(=O)=O)c2-c2nn[nH]n2)c1N [Example 447, 2-Amino-N-(2-aminoethyl)-4′-(N-(2-aminoethyl)sulfamoyl)-5-chloro-3′-sulfamoyl-2′-(2H-tetrazol-5-yl)-[1,1′-biphenyl]-3-carboxamide]
Escherichia coli (NDM-1) MITC95 [1]: 0.7813 µM
Klebsiella pneumoniae (VIM-1) MITC95 [2]: 1.563 µM
Serratia marcescens (IMP-1) MITC95 [3]: 0.7813 µM

NCCNC(=O)c1cc(Cl)cc(-c2ccc(S(=O)(=O)N[C@@H]3CCNC3)c(S(N)(=O)=O)c2-c2nn[nH]n2)c1N [Example 450, (R)-2-Amino-N-(2-aminoethyl)-5-chloro-4′-(N-(pyrrolidin-3-yl)sulfamoyl)-3′-sulfamoyl-2′-(2H-tetrazol-5-yl)-[1,1′-biphenyl]-3-carboxamide]
Escherichia coli (NDM-1) MITC95 [1]: 1.563 µM
Klebsiella pneumoniae (VIM-1) MITC95 [2]: 1.563 µM
Serratia marcescens (IMP-1) MITC95 [3]: 1.563 µM

NCCNC(=O)c1cc(-c2ccc(S(=O)(=O)NCCN)c(S(N)(=O)=O)c2-c2nn[nH]n2)ccc1N [Example 451, 4-Amino-N-(2-aminoethyl)-4′-(N-(2-aminoethyl)sulfamoyl)-3′-sulfamoyl-2′-(2H-tetrazol-5-yl)-[1,1′-biphenyl]-3-carboxamide]
Escherichia coli (NDM-1) MITC95 [1]: 0.7813 µM
Klebsiella pneumoniae (VIM-1) MITC95 [2]: 0.7813 µM
Serratia marcescens (IMP-1) MITC95 [3]: 0.7813 µM

NCCNS(=O)(=O)c1ccc(-c2cccc(NC(=O)[C@@H](N)CN)c2)c(-c2nn[nH]n2)c1S(N)(=O)=O [Example 453, (S)-2,3-Diamino-N-(4′-(N-(2-aminoethyl)sulfamoyl)-3′-sulfamoyl-2′-(2H-tetrazol-5-yl)-[1,1′-biphenyl]-3-yl)propanamide]
Escherichia coli (NDM-1) MITC95 [1]: 1.563 µM
Klebsiella pneumoniae (VIM-1) MITC95 [2]: 3.125 µM
Serratia marcescens (IMP-1) MITC95 [3]: 3.125 µM

NCCNc1cc(-c2ccc(S(=O)(=O)NCCN)c(S(N)(=O)=O)c2-c2nn[nH]n2)ccn1 [Example 456, N1-(2-Aminoethyl)-4-(2-((2-aminoethyl)amino)pyridin-4-yl)-3-(2H-tetrazol-5-yl)benzene-1,2-disulfonamide]
Escherichia coli (NDM-1) MITC95 [1]: 0.7813 µM
Klebsiella pneumoniae (VIM-1) MITC95 [2]: 1.563 µM
Serratia marcescens (IMP-1) MITC95 [3]: 0.7813 µM

NCc1nc(-c2cccc(-c3ccc(S(=O)(=O)N[C@H]4CNC[C@H]4N)c(S(N)(=O)=O)c3-c3nn[nH]n3)c2)c[nH]1 [Example 462]
Escherichia coli (NDM-1) MITC95 [1]: 1.563 µM
Klebsiella pneumoniae (VIM-1) MITC95 [2]: 1.563 µM
Serratia marcescens (IMP-1) MITC95 [3]: 1.563 µM
